Measurements from patent publication US20120035247A1, “RNA Interference Mediated Inhibition of Signal Transducer and Activator of Transcription 6 (STAT6) Gene Expression Using Short Interfering Nucleic Acid (siNA)” (Merck Sharp & Dohme Corp., priority 2009, published 2012).
[invAb] = inverted abasic unit; m = 2'-O-methyl; r = 2'-OH (RNA); f = 2'-fluoro

Legend:
STAT6 mRNA = assay: STAT6 siNA screen and dose response in human A549 cells, STAT6 mRNA by quantitative RT-PCR (Taqman); type: cell-based; details: for % KD STAT6 mRNA 10 nM / IC50: Table 4, human A549 cells; for % KD STAT6 mRNA 10 nM / IC50 / % KD STAT6: mean ± S.D.; for % KD STAT6 10 nM: Table 5, A549 cells, three experiments, mean ± standard deviation; for % KD STAT6: human A549 cells, 10 nM siNA, 24 hrs, normalized to GAPDH and non-targeting control, n = 3
Procedure, shortened: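 A549 cells were transfected with siNA–RNAiMax complexes at a final 10 nM siNA and incubated 24 h without a medium change. STAT6 mRNA was measured by TaqMan qRT-PCR on cell lysates. Knock-down was calculated by the comparative Ct (ΔΔCt) method against the non-targeting control siNA, with relative expression taken as 2^−ΔΔCt.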

[1] = tested on: human STAT4 mRNA transcript; assay: STAT4 specificity screen in human A549 cells, STAT4 mRNA by quantitative RT-PCR; type: cell-based; details: three experiments, mean ± standard deviation
Procedure: A549 (human; ATCC cat# CCL-185): Cells were cultured at 37° C. in the presence of 5% CO2 and grown in Ham's F12K medium with 2 mM L-glutamine adjusted to contain 1.5 g/L sodium bicarbonate and supplemented with fetal bovine serum at a final concentration of 10%, 100 μg/mL of streptomycin, and 100 U/mL penicillin.
A series of probes and primers were used to detect the various mRNA transcripts of the genes of 13-Actin (human cell line only), and of STATE and GAPDH in mouse and human cell lines. All Taqman probes and primers for the experiments here-in described were supplied as pre-validated sets by Applied Biosystems, Inc. (see Table 2).
The assays were performed on an ABI 7900 instrument, according to the manufacturer's instructions. A TaqMan Gene Expression Master Mix (provided in the Cells-to-CTT™, Applied Biosystems, Cat #4399002) was used. The PCR reactions were carried out at 50° C. for 2 min, 95° C. for 20 min followed by 40 cycles at 95° C. for 15 secs and 60° C. for 1 min.
The expression level of the gene of interest and % knock-down was calculated using Comparative Ct method:
ΔΔCt=ΔCt(Target siNA)−ΔCt(NTC)
Relative expression level=2^−ΔΔCt
The non-targeting control siNA was, unless otherwise indicated, chosen as the value against which to calculate the % knock-down, because it is the most relevant control.
The siNAs from Table 4 were tested in human A549 cell line at a lower concentration (1 nM versus the original screening concentration of 10 nM) to determine the effect of the STATE siRNAs on the mRNA transcript of human STAT4.

Substance	% KD STAT6 mRNA 10 nM (STAT6 mRNA)	IC50 (STAT6 mRNA)	% KD STAT6 10 nM (STAT6 mRNA)	% KD STAT6 (STAT6 mRNA)	% KD STAT4 1 nM [1]
29990-DC: STAT6 siNA duplex; sense SEQ ID NO: 44, antisense SEQ ID NO: 45; target GUGAAAGCCUGGUGGACAU, site 954 (sense GUGAAAGCCUGGUGGACAUTT; antisense AUGUCCACCAGGCUUUCACUU; sense: DNA at AGT, 2'-fluoro at CU, [invAb] at 5' end, 3' end, backbone not given here; antisense: sugars from the 5' end rrrfffmffmmmfffffmfmm, backbone not given here) [STAT6 siNA duplex; target GUGAAAGCCUGGUGGACAU, site 954]	71.7 ± 1.8%	23 ± 8.7 pM	71.7 ± 1.8%	71.7 ± 1.8%	−2.1 ± 25.7%
29997-DC: STAT6 siNA duplex; sense SEQ ID NO: 58, antisense SEQ ID NO: 59; target CUACCAUGGUGCCUUCUUA, site 2262 (sense CUACCAUGGUGCCUUCUUATT; antisense UAAGAAGGCACCAUGGUAGUU; sense: DNA at AGT, 2'-fluoro at CU, [invAb] at 5' end, 3' end, backbone not given here; antisense: sugars from the 5' end rrrmmmmmfmffmfmmfmmmm, backbone not given here) [STAT6 siNA duplex; target CUACCAUGGUGCCUUCUUA, site 2262]	68.1 ± 6.2%	18.1 ± 8.3 pM	68.1 ± 6.2%	68.1 ± 6.2%	2.6 ± 25%
30008-DC: STAT6 siNA duplex; sense SEQ ID NO: 80, antisense SEQ ID NO: 81; target CUGCUCUGCUCAGAUGUGA, site 2549 (sense CUGCUCUGCUCAGAUGUGATT; antisense UCACAUCUGAGCAGAGCAGUU; sense: DNA at AGT, 2'-fluoro at CU, [invAb] at 5' end, 3' end, backbone not given here; antisense: sugars from the 5' end rrrfmfffmmmfmmmmfmmmm, backbone not given here) [STAT6 siNA duplex; target CUGCUCUGCUCAGAUGUGA, site 2549]	72.6 ± 4.5%	21.6 ± 12.4 pM	72.6 ± 4.5%	72.6 ± 4.5%	16.4 ± 17%
